In ChEMBL document CHEMBL4387778, “Dual functional cholinesterase and PDE4D inhibitors for the treatment of Alzheimer's disease: Design, synthesis and evaluation of tacrine-pyrazolo[3,4-b]pyridine hybrids” (Bioorg Med Chem Lett, 2019):

Experiments:
[1] = biological target: 3',5'-cyclic-AMP phosphodiesterase 4D (Homo sapiens, UniProt Q08499)
Description: Inhibition of recombinant human PDE4D2 catalytic domain (86 to 413 residues) expressed in Escherichia coli BL21 codonplus cells using [3H]cAMP as substrate preincubated for 15 mins followed by substrate addition by liquid scintillation counting method

Cholinesterase = Cholinesterase (Equus caballus, UniProt P81908); experiment: Inhibition of equine serum BuchE using butyrylthiocholine as substrate by Ellman's method
Acetylcholinesterase = Acetylcholinesterase (Electrophorus electricus, UniProt O42275); experiment: Inhibition of electric eel AchE using acetylthiocholine as substrate by Ellman's method
Acetylcholinesterase, sequence (O42275 whole entry): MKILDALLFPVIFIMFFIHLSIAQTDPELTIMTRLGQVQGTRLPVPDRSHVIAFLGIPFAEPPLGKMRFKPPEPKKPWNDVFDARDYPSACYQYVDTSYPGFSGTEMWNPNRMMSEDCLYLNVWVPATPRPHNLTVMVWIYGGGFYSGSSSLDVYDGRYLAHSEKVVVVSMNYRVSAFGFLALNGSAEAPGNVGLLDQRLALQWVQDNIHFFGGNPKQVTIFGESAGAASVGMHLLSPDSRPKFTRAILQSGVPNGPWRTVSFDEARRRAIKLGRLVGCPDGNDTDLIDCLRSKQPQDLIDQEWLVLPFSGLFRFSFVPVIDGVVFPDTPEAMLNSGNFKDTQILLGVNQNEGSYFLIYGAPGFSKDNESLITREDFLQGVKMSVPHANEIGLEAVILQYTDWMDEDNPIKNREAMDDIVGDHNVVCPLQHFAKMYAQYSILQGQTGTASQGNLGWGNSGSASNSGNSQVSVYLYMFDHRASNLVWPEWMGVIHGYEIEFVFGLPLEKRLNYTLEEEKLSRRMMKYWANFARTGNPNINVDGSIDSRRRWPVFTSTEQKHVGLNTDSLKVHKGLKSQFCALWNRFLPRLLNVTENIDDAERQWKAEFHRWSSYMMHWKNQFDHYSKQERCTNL

Cholinesterase, sequence (P81908 whole entry): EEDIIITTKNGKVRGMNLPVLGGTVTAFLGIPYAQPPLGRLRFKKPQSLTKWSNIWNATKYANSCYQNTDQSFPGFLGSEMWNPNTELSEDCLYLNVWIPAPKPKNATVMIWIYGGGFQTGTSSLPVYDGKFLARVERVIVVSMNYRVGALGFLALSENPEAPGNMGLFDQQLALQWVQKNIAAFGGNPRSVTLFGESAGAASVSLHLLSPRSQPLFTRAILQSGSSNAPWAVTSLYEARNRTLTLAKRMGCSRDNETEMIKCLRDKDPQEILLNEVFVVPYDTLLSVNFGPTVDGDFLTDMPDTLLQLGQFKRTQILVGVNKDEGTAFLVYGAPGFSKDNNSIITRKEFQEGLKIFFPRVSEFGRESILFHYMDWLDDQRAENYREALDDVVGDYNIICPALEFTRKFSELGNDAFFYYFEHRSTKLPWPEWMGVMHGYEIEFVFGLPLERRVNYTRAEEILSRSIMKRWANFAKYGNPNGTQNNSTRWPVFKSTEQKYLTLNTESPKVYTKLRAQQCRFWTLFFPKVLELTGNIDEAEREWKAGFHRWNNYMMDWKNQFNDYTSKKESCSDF
3',5'-cyclic-AMP phosphodiesterase 4D, sequence (Q08499 whole entry): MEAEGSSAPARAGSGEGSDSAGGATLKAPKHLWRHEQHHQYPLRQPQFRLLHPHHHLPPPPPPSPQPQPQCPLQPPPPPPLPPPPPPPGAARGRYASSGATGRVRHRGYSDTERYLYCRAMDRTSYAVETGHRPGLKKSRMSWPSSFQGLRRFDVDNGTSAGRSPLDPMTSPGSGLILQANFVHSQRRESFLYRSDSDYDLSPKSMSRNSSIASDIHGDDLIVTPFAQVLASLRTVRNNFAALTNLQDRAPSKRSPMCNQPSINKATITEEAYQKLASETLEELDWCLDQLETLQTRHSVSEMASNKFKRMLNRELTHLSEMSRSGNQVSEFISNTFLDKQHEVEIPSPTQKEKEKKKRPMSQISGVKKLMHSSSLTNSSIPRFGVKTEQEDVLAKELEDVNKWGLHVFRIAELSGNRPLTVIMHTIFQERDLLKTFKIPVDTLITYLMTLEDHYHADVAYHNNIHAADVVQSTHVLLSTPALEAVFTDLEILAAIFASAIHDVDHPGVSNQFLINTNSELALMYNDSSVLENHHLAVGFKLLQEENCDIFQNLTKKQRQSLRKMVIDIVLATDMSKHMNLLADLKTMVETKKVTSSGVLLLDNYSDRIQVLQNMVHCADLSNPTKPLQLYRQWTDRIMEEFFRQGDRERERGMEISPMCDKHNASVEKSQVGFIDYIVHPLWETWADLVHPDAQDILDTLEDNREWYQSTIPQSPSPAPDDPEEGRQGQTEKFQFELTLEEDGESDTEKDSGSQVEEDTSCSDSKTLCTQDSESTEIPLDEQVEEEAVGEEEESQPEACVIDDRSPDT

SMILES | IC50 [1] [nM] | IC50 (Cholinesterase) [nM] | IC50 (Acetylcholinesterase) [nM]
CCn1ncc2c(NC3CCCCC3)c(C(=O)NCCCCCNc3c4c(nc5ccc(Cl)cc35)CCCC4)cnc21 | 308 | 434 | 306
CCn1ncc2c(NC3CCCCC3)c(C(=O)NCCCCCCNc3c4c(nc5cc(Cl)ccc35)CCCC4)cnc21 | 271 | 449 | 125
CCn1ncc2c(NC3CCCCC3)c(C(=O)NCCNc3c4c(nc5ccccc35)CCCC4)cnc21 | 41 | 891 | 243
CCn1ncc2c(NC3CCCCC3)c(C(=O)NCCCCCCCCNc3c4c(nc5cc(Cl)ccc35)CCCC4)cnc21 | 1080 | 314 | 812
CCn1ncc2c(NC3CCCCC3)c(C(=O)NCCCCCCNc3c4c(nc5ccccc35)CCCC4)cnc21 | 501 | 332 | 149
CCn1ncc2c(NC3CCCCC3)c(C(=O)NCCCCCCCNc3c4c(nc5ccccc35)CCCC4)cnc21 | 1070 | 324 | 316
CCn1ncc2c(NC3CCCCC3)c(C(=O)NCCNc3c4c(nc5cc(Cl)ccc35)CCCC4)cnc21 | 25 | 713 | 412
CCn1ncc2c(NC3CCCCC3)c(C(=O)NCCCCCCCCNc3c4c(nc5ccccc35)CCCC4)cnc21 | 1310 | 320 | 392
CCn1ncc2c(NC3CCCCC3)c(C(=O)NCCCCNc3c4c(nc5ccccc35)CCCC4)cnc21 | 108 | 889 | 333
CCn1ncc2c(NC3CCCCC3)c(C(=O)NCCCCCNc3c4c(nc5ccccc35)CCCC4)cnc21 | 477 | 264 | 358
CCn1ncc2c(NC3CCCCC3)c(C(=O)NCCCCCCCNc3c4c(nc5ccc(Cl)cc35)CCCC4)cnc21 | 934 | 245 | 391
CCn1ncc2c(NC3CCCCC3)c(C(=O)NCCCCNc3c4c(nc5cc(Cl)ccc35)CCCC4)cnc21 | 87 | 1280 | 335
